Measurements from the kinase profiling compilation of Christmann-Franck et al. (2016).

Legend:
[1] = molecular target: SPHK2 (human) (UniProt Q9NRA0); experiment: ADP detection assay-Luminescence; conditions: ATP 1 µM
[2] = molecular target: PIK3CG (human) (UniProt P48736); experiment: ADP detection assay-Luminescence
[3] = molecular target: PIP4K2A (human) (UniProt P48426); experiment: ADP detection assay-Luminescence
[4] = molecular target: PIK3CB PIK3R1 (human) (UniProt P27986+P42338); experiment: ADP detection assay-Luminescence; conditions: ATP 1000 µM
[5] = molecular target: SPHK1 (human) (UniProt Q9NYA1); experiment: ADP detection assay-Luminescence; conditions: ATP 10 µM
[6] = molecular target: CHKA (human) (UniProt P35790); experiment: ADP detection assay-Luminescence; conditions: ATP 1 µM
[7] = molecular target: PIK3CA PIK3R1 (human) (UniProt P27986+P42336); experiment: ADP detection assay-Luminescence; conditions: ATP 1000 µM
[8] = molecular target: DGKB (human) (UniProt Q9Y6T7); experiment: ADP detection assay-Luminescence
[9] = molecular target: PDPK1 (human) (UniProt O15530); experiment: radiometric filter-binding kinase assay
Chain of PDPK1 (human) (O15530 whole entry, looked up): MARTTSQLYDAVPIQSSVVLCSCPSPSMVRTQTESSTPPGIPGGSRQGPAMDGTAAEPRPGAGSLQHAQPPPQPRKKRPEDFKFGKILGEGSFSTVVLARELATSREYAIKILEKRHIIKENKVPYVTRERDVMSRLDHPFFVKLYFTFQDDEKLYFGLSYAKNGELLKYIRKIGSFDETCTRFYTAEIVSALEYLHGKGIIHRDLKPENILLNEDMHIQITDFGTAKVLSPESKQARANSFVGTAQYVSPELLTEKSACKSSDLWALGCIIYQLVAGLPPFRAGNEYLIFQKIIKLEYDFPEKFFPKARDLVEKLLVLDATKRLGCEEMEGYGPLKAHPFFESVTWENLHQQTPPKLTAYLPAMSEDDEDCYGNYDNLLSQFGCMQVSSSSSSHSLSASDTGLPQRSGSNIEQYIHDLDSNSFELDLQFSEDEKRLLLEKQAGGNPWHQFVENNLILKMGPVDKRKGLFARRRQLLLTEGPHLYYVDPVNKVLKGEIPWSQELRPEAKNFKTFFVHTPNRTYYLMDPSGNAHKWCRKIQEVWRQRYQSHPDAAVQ

[10] = system: AKT1 (human), P31749 [S473D]; experiment: radiometric filter-binding kinase assay; conditions: ATP 5 µM
[11] = molecular target: MAPK15 (human) (UniProt Q8TD08); experiment: radiometric filter-binding kinase assay; conditions: ATP 5 µM
Chain of MAPK15 (human) (Q8TD08 whole entry, looked up): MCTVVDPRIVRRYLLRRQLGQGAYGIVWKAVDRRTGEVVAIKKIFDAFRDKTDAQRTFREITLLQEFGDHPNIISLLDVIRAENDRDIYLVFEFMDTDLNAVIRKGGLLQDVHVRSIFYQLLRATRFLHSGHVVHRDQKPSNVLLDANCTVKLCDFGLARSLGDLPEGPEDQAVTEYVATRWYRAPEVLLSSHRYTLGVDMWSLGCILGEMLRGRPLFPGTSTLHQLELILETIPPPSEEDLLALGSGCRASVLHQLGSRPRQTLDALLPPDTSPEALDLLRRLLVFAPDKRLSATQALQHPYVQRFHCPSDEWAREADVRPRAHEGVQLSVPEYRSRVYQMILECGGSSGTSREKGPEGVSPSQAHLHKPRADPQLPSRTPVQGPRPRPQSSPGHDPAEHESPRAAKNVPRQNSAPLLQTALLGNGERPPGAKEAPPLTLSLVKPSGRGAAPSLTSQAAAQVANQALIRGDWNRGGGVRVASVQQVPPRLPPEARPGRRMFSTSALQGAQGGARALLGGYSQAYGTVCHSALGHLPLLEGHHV

[12] = molecular target: MYLK (human) (UniProt Q15746); experiment: radiometric filter-binding kinase assay; conditions: ATP 50 µM
[13] = molecular target: MAPK11 (human) (UniProt Q15759); experiment: radiometric filter-binding kinase assay; conditions: ATP 20 µM
Chain of MAPK11 (human) (Q15759 whole entry, looked up): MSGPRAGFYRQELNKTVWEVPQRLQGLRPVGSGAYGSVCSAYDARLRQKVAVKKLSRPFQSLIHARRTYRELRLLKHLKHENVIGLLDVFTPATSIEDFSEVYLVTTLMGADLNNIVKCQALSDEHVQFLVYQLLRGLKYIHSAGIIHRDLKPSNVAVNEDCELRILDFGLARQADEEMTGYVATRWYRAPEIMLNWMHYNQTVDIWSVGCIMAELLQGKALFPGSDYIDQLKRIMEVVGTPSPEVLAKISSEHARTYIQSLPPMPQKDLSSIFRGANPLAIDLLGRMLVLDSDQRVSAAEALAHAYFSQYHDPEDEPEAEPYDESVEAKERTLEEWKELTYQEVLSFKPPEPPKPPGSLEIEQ

[14] = molecular target: MAPK9 (human) (UniProt P45984); experiment: radiometric filter-binding kinase assay; conditions: ATP 20 µM
[15] = molecular target: MAPK8 (human) (UniProt P45983); experiment: radiometric filter-binding kinase assay; conditions: ATP 20 µM
[16] = molecular target: RPS6KB2 (human) (UniProt Q9UBS0); experiment: radiometric filter-binding kinase assay; conditions: ATP 100 µM
[17] = molecular target: CaMK1 (human) (UniProt Q14012); experiment: radiometric filter-binding kinase assay; conditions: ATP 50 µM
[18] = molecular target: EEF2K (human) (UniProt O00418); experiment: radiometric filter-binding kinase assay; conditions: ATP 5 µM
[19] = molecular target: DYRK1A (human) (UniProt Q13627); experiment: radiometric filter-binding kinase assay; conditions: ATP 50 µM
[20] = molecular target: DYRK3 (human) (UniProt O43781); experiment: radiometric filter-binding kinase assay; conditions: ATP 5 µM
Chain of DYRK3 (human) (O43781 whole entry, looked up): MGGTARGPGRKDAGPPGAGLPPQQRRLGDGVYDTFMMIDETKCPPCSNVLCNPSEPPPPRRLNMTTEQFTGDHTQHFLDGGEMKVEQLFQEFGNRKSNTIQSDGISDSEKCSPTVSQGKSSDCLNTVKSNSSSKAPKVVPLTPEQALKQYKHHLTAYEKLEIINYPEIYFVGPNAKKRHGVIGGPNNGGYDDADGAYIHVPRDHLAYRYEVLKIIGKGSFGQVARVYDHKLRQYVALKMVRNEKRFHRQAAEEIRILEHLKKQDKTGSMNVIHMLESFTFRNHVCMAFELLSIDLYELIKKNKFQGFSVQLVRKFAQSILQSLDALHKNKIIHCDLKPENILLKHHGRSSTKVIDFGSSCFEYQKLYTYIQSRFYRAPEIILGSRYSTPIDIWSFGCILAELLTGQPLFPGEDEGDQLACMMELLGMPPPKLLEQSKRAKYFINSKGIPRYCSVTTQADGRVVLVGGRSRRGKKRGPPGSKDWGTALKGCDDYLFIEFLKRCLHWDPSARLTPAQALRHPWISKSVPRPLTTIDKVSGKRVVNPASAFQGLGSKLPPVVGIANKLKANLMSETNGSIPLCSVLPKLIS

[21] = molecular target: CSNK2A1 (human) (UniProt P68400); experiment: radiometric filter-binding kinase assay; conditions: ATP 5 µM
[22] = molecular target: NEK2 (human) (UniProt P51955); experiment: radiometric filter-binding kinase assay; conditions: ATP 50 µM
Chain of NEK2 (human) (P51955 whole entry, looked up): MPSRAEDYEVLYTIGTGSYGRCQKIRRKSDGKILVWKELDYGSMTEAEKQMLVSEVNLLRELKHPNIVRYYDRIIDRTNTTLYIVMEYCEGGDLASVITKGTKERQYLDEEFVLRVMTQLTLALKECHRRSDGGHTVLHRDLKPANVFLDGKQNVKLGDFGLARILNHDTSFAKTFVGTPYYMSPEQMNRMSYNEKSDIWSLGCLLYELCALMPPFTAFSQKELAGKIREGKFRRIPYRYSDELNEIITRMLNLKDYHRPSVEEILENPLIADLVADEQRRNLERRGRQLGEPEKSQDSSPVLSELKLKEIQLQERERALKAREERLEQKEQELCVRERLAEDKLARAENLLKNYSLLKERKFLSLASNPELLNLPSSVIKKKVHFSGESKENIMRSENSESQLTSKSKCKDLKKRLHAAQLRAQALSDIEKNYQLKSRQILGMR

[23] = molecular target: MAPKAPK2 (human) (UniProt P49137); experiment: radiometric filter-binding kinase assay; conditions: ATP 20 µM
[24] = molecular target: PI4KA (human) (UniProt P42356); experiment: radiometric filter-binding kinase assay
[25] = molecular target: MARK3 (human) (UniProt P27448); experiment: radiometric filter-binding kinase assay; conditions: ATP 5 µM
Chain of MARK3 (human) (P27448 whole entry, looked up): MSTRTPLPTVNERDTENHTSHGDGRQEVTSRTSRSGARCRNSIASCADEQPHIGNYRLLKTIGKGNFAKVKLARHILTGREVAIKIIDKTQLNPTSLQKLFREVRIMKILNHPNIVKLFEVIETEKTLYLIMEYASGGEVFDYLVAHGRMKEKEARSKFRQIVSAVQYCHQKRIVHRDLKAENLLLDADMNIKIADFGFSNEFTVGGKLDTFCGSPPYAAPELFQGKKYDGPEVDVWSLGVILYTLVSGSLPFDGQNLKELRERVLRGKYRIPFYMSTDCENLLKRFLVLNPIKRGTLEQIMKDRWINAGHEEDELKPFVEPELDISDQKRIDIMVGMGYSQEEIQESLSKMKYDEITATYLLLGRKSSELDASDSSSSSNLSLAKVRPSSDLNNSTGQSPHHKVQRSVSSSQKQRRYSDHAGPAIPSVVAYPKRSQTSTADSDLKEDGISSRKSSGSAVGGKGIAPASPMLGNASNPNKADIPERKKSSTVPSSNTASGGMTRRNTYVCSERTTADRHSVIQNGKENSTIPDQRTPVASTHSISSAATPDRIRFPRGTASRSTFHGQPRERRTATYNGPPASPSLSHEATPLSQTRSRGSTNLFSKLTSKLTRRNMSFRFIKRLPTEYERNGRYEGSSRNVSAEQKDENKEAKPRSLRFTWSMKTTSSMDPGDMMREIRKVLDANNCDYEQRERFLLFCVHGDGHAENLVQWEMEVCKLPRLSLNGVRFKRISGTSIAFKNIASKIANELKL

[26] = molecular target: NEK6 (human) (UniProt Q9HC98); experiment: radiometric filter-binding kinase assay; conditions: ATP 50 µM
Chain of NEK6 (human) (Q9HC98 whole entry, looked up): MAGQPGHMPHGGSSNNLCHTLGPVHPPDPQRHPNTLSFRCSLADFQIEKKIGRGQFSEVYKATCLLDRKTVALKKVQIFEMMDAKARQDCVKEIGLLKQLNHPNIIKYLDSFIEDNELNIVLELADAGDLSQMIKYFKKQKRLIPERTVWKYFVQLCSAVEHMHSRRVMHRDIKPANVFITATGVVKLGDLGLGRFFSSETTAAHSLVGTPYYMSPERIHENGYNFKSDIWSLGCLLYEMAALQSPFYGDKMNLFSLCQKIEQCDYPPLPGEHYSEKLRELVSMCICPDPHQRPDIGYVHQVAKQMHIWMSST

[27] = molecular target: EPHA2 (human) (UniProt P29317); experiment: radiometric filter-binding kinase assay; conditions: ATP 50 µM
[28] = molecular target: MAPKAPK5 (human) (UniProt Q8IW41); experiment: radiometric filter-binding kinase assay; conditions: ATP 20 µM
[29] = molecular target: PRKAA1 PRKAB2 PRKAG1 (human) (UniProt O43741+Q13131+P54619); experiment: radiometric filter-binding kinase assay; conditions: ATP 50 µM
Chain of PRKAA1 PRKAB2 PRKAG1 (human) (O43741 whole entry, looked up): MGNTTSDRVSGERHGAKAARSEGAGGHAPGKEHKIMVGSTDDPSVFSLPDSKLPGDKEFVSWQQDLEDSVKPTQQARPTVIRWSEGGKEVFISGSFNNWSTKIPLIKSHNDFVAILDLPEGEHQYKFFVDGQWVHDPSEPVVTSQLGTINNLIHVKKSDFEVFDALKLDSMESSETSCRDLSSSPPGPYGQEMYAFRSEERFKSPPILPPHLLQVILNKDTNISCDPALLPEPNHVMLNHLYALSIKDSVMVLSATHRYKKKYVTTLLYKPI
Chain of PRKAA1 PRKAB2 PRKAG1 (human) (P54619 whole entry, looked up): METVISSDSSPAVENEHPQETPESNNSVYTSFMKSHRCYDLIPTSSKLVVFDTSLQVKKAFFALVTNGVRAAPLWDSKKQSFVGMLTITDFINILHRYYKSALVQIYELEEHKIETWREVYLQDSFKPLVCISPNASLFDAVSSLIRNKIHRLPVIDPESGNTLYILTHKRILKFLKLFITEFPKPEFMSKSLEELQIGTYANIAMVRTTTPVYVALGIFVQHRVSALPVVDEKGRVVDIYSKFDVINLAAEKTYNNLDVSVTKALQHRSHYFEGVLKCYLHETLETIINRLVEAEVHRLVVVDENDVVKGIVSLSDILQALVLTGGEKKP
Chain of PRKAA1 PRKAB2 PRKAG1 (human) (Q13131 whole entry, looked up): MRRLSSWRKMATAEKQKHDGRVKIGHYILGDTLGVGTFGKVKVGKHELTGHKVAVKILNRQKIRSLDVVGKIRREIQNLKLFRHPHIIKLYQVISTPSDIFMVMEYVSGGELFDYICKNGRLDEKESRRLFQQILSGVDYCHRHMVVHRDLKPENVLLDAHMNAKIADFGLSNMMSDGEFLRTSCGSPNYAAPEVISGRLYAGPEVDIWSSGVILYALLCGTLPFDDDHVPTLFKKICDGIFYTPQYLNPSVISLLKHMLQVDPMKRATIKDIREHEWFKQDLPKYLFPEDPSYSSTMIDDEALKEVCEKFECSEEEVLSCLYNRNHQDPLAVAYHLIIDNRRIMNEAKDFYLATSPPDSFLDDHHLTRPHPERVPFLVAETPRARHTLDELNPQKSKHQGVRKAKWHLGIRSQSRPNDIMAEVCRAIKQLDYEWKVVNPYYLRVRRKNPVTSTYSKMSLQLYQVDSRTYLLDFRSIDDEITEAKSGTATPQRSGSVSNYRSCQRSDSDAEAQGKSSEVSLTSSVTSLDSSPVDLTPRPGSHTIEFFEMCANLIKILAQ

CCc1cncnc1N1CCN(Cc2nc3cc(C(F)(F)F)ccc3[nH]2)CC1
residual activity ([1]; compound 1.0 µM): 100%
residual activity ([1]; compound 10.0 µM): 98%
residual activity ([2]; compound 1.0 µM): 101%
residual activity ([2]; compound 10.0 µM): 102%
residual activity ([3]; compound 1.0 µM): 101%
residual activity ([3]; compound 10.0 µM): 100%
residual activity ([4]; compound 1.0 µM): 103%
residual activity ([4]; compound 10.0 µM): 115%
residual activity ([5]; compound 1.0 µM): 99%
residual activity ([5]; compound 10.0 µM): 103%
residual activity ([6]; compound 1.0 µM): 98%
residual activity ([6]; compound 10.0 µM): 94%
residual activity ([7]; compound 1.0 µM): 107%
residual activity ([7]; compound 10.0 µM): 117%
residual activity ([8]; compound 1.0 µM): 98%
residual activity ([8]; compound 10.0 µM): 99%
residual activity ([9]; compound 0.1 µM, ATP 20 µM): 90%
residual activity ([9]; compound 0.1 µM, ATP 50 µM): 94%
residual activity ([9]; compound 1.0 µM, ATP 20 µM): 86%
residual activity ([9]; compound 1.0 µM, ATP 50 µM): 83%
residual activity ([9]; compound 10.0 µM, ATP 20 µM): 95%
residual activity ([9]; compound 10.0 µM, ATP 50 µM): 67%
residual activity ([10]; compound 0.1 µM): 87%
residual activity ([10]; compound 1.0 µM): 69%
residual activity ([10]; compound 10.0 µM): 52%
residual activity ([11]; compound 0.1 µM): 85%
residual activity ([11]; compound 1.0 µM): 83%
residual activity ([11]; compound 10.0 µM): 71%
residual activity ([12]; compound 0.1 µM): 95%
residual activity ([12]; compound 1.0 µM): 79%
residual activity ([12]; compound 10.0 µM): 87%
residual activity ([13]; compound 0.1 µM): 88%
residual activity ([13]; compound 1.0 µM): 89%
residual activity ([13]; compound 10.0 µM): 97%
residual activity ([14]; compound 0.1 µM): 92%
residual activity ([14]; compound 1.0 µM): 93%
residual activity ([14]; compound 10.0 µM): 98%
residual activity ([15]; compound 0.1 µM): 111%
residual activity ([15]; compound 1.0 µM): 107%
residual activity ([15]; compound 10.0 µM): 95%
IC50 [16]: 65 µM
residual activity ([17]; compound 0.1 µM): 106%
residual activity ([17]; compound 1.0 µM): 94%
residual activity ([17]; compound 10.0 µM): 78%
residual activity ([18]; compound 0.1 µM): 90%
residual activity ([18]; compound 1.0 µM): 73%
residual activity ([18]; compound 10.0 µM): 78%
residual activity ([19]; compound 0.1 µM): 99%
residual activity ([19]; compound 1.0 µM): 94%
residual activity ([19]; compound 10.0 µM): 85%
residual activity ([20]; compound 0.1 µM): 106%
residual activity ([20]; compound 1.0 µM): 92%
residual activity ([20]; compound 10.0 µM): 83%
residual activity ([21]; compound 0.1 µM): 96%
residual activity ([21]; compound 1.0 µM): 92%
residual activity ([21]; compound 10.0 µM): 83%
residual activity ([22]; compound 0.1 µM): 95%
residual activity ([22]; compound 1.0 µM): 94%
residual activity ([22]; compound 10.0 µM): 91%
residual activity ([23]; compound 0.1 µM): 88%
residual activity ([23]; compound 1.0 µM): 105%
residual activity ([23]; compound 10.0 µM): 78%
residual activity ([24]; compound 1.0 µM): 106%
residual activity ([24]; compound 10.0 µM): 102%
residual activity ([25]; compound 0.1 µM): 94%
residual activity ([25]; compound 1.0 µM): 83%
residual activity ([25]; compound 10.0 µM): 82%
residual activity ([26]; compound 0.1 µM): 88%
residual activity ([26]; compound 1.0 µM): 75%
residual activity ([26]; compound 10.0 µM): 80%
residual activity ([27]; compound 0.1 µM): 95%
residual activity ([27]; compound 1.0 µM): 86%
residual activity ([27]; compound 10.0 µM): 89%
residual activity ([28]; compound 0.1 µM): 114%
residual activity ([28]; compound 1.0 µM): 97%
residual activity ([28]; compound 10.0 µM): 87%
residual activity ([29]; compound 0.1 µM): 100%
residual activity ([29]; compound 1.0 µM): 88%
residual activity ([29]; compound 10.0 µM): 46%
